According to patent publication US20250019372A1, “CRYSTALLINE FORMS OF A RIPK1 INHIBITOR” (RIGEL PHARMACEUTICALS, INC., priority 2021, published 2025):

Assay: Relative thermodynamic stability of the crystalline forms
Format: physicochemical
Settings: compared to the other identified Forms A, B, and C; temperature range of RT to 50° C.

## CN1C(=O)[C@@H](NC(=O)c2n[nH]c(Cc3ccccc3)n2)COc2ccc(C#CC(C)(C)O)cc21 [Form D, (S)-5-benzyl-N-(7-(3-hydroxy-3-methylbut-1-yn-1-yl)-5-methyl-4-oxo-2,3,4,5-tetrahydrobenzo[b][1,4]oxazepin-3-yl)-1H-1,2,4-triazole-3-carboxamide]
  thermodynamic stability of the crystalline form: most thermodynamically stable crystalline form
